Here are results for 13 substances from US20240216250A1, “COSMETIC PEPTIDES FOR IMPROVING SKIN REJUVENATION” (Lean Life Sciences, Inc., priority 2021, published 2024).

Entries after “also recorded” stand apart in the source; their conditions may differ.

Test [1] deals with skin cells. Put plainly: Fructose, glucose and sucrose concentration in skin cells, same manner as Example 1-1. The test is classed as cell-based. To be noted: Example 1-18, present tense. The protocol: (§1) Fructose concentration in 3T3-L1 cell lysates was measured using the Fructose Assay Kit (Abcam, Cambridge, UK). Six-well plates were seeded with 5×10^5 3T3-L1 cells/well one day before treating with 150 μM peptide. After 48 hours of treatment, the cells were harvested and fructose concentrations were assayed according to the manufacturer's instruction.
An additional group of skin cells are treated with one of KGGRAKD, KGG, GGR, GRA, RAK, AKD, DKA, KAR, ARG, RGG, GGK, and DKARGGK in the same manner as Example 1-1.
An additional group of skin cells were treated with […] (SEQ ID NO: 5) in the same manner as Example 1-1.
(§2) An additional group of skin cells are treated with one of […] (SEQ ID NO: 3) and […] (SEQ ID NO: 4) in the same manner as Example 1-1.

Test [2] has as its system skin cells. Put plainly: Collagen and fibronectin levels in skin cells upon peptide treatment. It is filed as cell-based. The note with it: Example 1-18, at a particular concentration, present tense. Here is the method:
as §2
The fructose, glucose, and sucrose concentrations in the groups where the above peptides are treated are not affected (data not shown), while the extra cellular matrix molecules, collagen and fibronectin, are determined.

The subject of a further test is 3T3-L1 cells. Put plainly: Fructose, glucose and sucrose concentration in adipocytes (3T3-L1 cell lysates, Fructose Assay Kit). It is filed as cell-based, mouse. The protocol: as §1
In order to confirm the effect of peptides on reducing the fructose level in adipocytes, three groups of adipocytes were prepared. Among the three groups, one group was treated with GGR, and another group was treated with RAK. The remaining group was not treated with any peptides and used as a control group. […] Fructose—an intermediate metabolite of glucose—was measured to further probe glucose metabolism. 3T3-L1 cells treated with either peptide had lower fructose concentrations than untreated cells (FIG. 1).
An additional group of adipocytes are treated with one of KGGRAKD, KGG, GGR, GRA, RAK, AKD, DKA, KAR, ARG, RGG, GGK, and DKARGGK in the same manner as Example 1-1.

The next test relates to 3T3-L1 mature adipocytes. Put plainly: Lipid accumulation in 3T3-L1 adipocytes by Oil Red O staining, with cell count. The note with it: for Decrease in degree of lipid accumulation: 3T3-L1 mature adipocytes, quantitative Oil Red O analysis, Day 21 (H of FIG. 3); for Number and size of lipid droplets in adipocytes: Oil Red O, microscopy, peptides at 100 μM, three times per week for three weeks (Day 21), vs non-treated control; for Reduction of lipid accumulation: murine-based in vitro systems. It is filed as cell-based, mouse. Here is the method:
FIG. 3: Representative photomicrographs showing Oil Red O-stained mature adipocytes treated with peptides at 100 μM (Day 21). H: Quantitative analysis of the lipids accumulated in the adipocytes (Day 21). Control absorbance: 0.526 (Red line). I: Relative cell counts on day 21.
The effects of the minimal short peptides in blocking lipid accumulation in adipocytes were compared with their parent full-length peptide. After generating five different 3 amino acid fragments (KGG, GGR, GRA, RAK, and AKD) from the original ATS peptide (KGGRAKD (SEQ ID NO:1)), each peptide was administered to 3T3-L1 pre-adipocytes in five varying concentrations. Peptides were treated to the adipocytes three times per week for three weeks. Oil Red O staining was utilized to assess the lipid contents in mature adipocytes in culture. The morphological characteristics of 3T3-L1 mature adipocytes were observed by microscopy. […] Furthermore, the lipids were quantitatively analyzed.
The number of viable cells is counted prior to Oil Red O staining using Cell Counting Kit 8 (Dojindo). This cell viability study allows one to determine potential toxicities of the peptides and compensate for cell number variation-causing artifacts. Oil Red O is dissolved in isopropanol at […] to create a working solution. 12 ml of Oil Red O working solution is mixed with 8 ml dH2O and incubated for 10 minutes. This solution is then filtered using a 0.2 μm syringe filter. Adipocytes seeded on 96-well plates are washed with PBS twice. 10% formaldehyde is added for initial fixation and the plates are incubated for at least 30 minutes. The formaldehyde is removed and the cells are once again washed twice, this time with dH2O. 60% isopropanol is added to each well. The plates are incubated for 5 minutes. The isopropanol is removed from the wells and replaced with Oil Red O working solution. The plates are incubated for an additional 10 minutes. The Oil Red O solution is removed and washed four times with dH2O. Lastly, digital micrographs of the lipid droplets in adipocytes are taken using a light microscope. After the staining protocol, all plates are washed three times with 60% isopropanol. Each time, 5 minutes of gentle rocking was used. The Oil Red O is extracted with 100% isopropanol with gentle rocking for 5 minutes. 200 μl isopropanol per well is used as a background to measure absorbance at 492 nm using a BioTek microplate reader.

The subject of a further test is DIO mice. In words: Body weight gain in DIO mice: obesity progression model (OPM) and obesity model (OM). To be noted: for Prevention of body weight gain: pre-obese OPM mice on HFD; for Prevention of body weight gain / body weight change: post-obese OM mice. The test is classed as in vivo. The protocol: Prior to oral administration, peptides were administered to DIO mice via intraperitoneal (IP) and subcutaneous (SC) injections.
In the first phase, peptides were tested on pre-obese mice that were being fed high fat diet (HFD) to induce obesity (obesity progression model, OPM). In the second phase, these peptides were given to mice that had already developed obesity (obesity model, OM). […] As the activity of these three peptides varies depending on the injection route and the disease status, all three peptides, GGR, RAK, and AKD, were tested by oral administration.
Prior to oral administration, GGR, RAK, AKD, full-length ATS, and scrambled RKG peptides were administered to OPM mice via IP and SC injections to further screen an ideal peptide composition. PBS was included as a vehicle group. GGR, RAK, and AKD peptides were discovered to impede body weight gain in OPM mice. GGR and RAK were effective when given IP injections and AKD was effective by SC injections (FIGS. 4 and 5).
The second phase signified the post-obesity stage, where the same methods from phase 1 were used on OM mice.
GGR, RAK, and AKD peptides were tested in OPM and OM mice by oral administration. […] In obesity progression, adipocytes increase in both number and size due to escalating lipid accumulation (Parlee, S. D., et al., Methods Enzymol 537, 93-122, (2014)). Using the methods described above, abdominal fat pads of GGR, RAK, AKD, or PBS-treated DIO mice were histologically analyzed. Epididymal fat tissues were harvested from two mice per experimental group. All samples were fixed in 4% paraformaldehyde, H&E-stained, and imaged. At a 10× magnification, adipocyte cell counting was performed on the digital slide images using an automated adipocyte counting macro with the ImageJ software. A default thresholding method was used and [cell] sizing boundaries of 40-40,000 were set. Limitations of the segmentation tool led to some erroneous selections or regions of interest (ROI), which were manually corrected by adding or erasing lines. The number of cells per representative field were then determined using the ROI manager in ImageJ. Two or three high power fields (hpf) per tissue and two tissue samples per group were analyzed to reduce variability. Average cell count for each group was calculated accordingly. Areas of all adipocytes of interest were measured using the ROI measurement tool (ImageJ) and average area per cell was calculated accordingly.

[3] abbreviates: Examples 1-2 to 1-11, same manner as Example 1-1.

For the substance ACTGSTQHQGGGSEHGAMEI, in the test with skin cells [1], the “Fructose concentration in skin cells” value is recorded as “not affected”, the “Glucose concentration in skin cells” value is given as “not affected” and the “Sucrose concentration in skin cells” value is reported as “not affected”. Moreover, in the test on skin cells [2], the “Collagen in skin cells vs control group” value is recorded as “significantly higher than the control group” and the “Fibronectin in skin cells vs control group” value was “significantly higher than the control group”.
AKD: the “Fructose concentration in adipocytes vs control group” value in the test with 3T3-L1 cells (setting [3]) is recorded as “significantly lower than the control group”. Moreover, in the test with 3T3-L1 mature adipocytes, the “Decrease in degree of lipid accumulation” value is “approximately 20%”; the “Number and size of lipid droplets in adipocytes” value (shortened to “Number and size”) was “smaller than those in the non-treated control”; the “Reduction of lipid accumulation” value is listed as “effective in reducing lipid accumulation”. In the test on DIO mice (SC injection), the “Prevention of body weight gain” value is listed as “best working peptide; also recorded: effective”. The “Anti-obesity efficacy (body weight)” value in the test on DIO mice (pre-obese OPM mice, oral administration) is “efficacious over GGR”.
Regarding DKARGGK, the “Fructose concentration in adipocytes vs control group” value with 3T3-L1 cells (setting [3]) is on record as “significantly lower than the control group”.
Still for that read-out and setting: in the case of KAR it was “significantly lower than the control group”.
Same read-out and setting: to DKA belongs “significantly lower than the control group”.
On to GRA, for which, in the test on 3T3-L1 cells (setting [3]), the “Fructose concentration in adipocytes vs control group” value was “significantly lower than the control group”. In addition, the “Number and size” value in the test with 3T3-L1 mature adipocytes was “moderate differences in the morphology of lipid droplets”.
Turning to RKG [reference compound], the Anti-obesity effects entry with DIO mice (IP and SC studies, regardless of injection route or schedule) is recorded as “no anti-obesity effects”. For the same substance, in the test on DIO mice (IP injection), the “Prevention of body weight gain / body weight change” value is “did not show meaningful efficacy over the vehicle group” and the “Prevention of body weight gain” value was “did not show meaningful efficacy over the vehicle group; also recorded: no anti-obese effects”. Moreover, the “Prevention of body weight gain” value in the test with DIO mice (SC injection) is given as “no anti-obese effects”.
Take ARG: the “Fructose concentration in adipocytes vs control group” value in the test with 3T3-L1 cells (setting [3]) was “significantly lower than the control group”.
For ACSSSPSKHCGGGSESPLKRQG, in the test with skin cells [1], the “Fructose concentration in skin cells” value is “not affected”, the “Glucose concentration in skin cells” value was “not affected” and the “Sucrose concentration in skin cells” value is listed as “not affected”. Besides, in the test on skin cells [2], the “Collagen in skin cells vs control group” value is “significantly higher than the control group” and the “Fibronectin in skin cells vs control group” value was “significantly higher than the control group”.
In the case of KGG, the “Fructose concentration in adipocytes vs control group” value with 3T3-L1 cells (setting [3]) is recorded as “significantly lower than the control group”. Moreover, the “Number and size” value in the test on 3T3-L1 mature adipocytes is “moderate differences in the morphology of lipid droplets”.
GGR: the “Fructose concentration in adipocytes vs control group” value in the test with 3T3-L1 cells (3T3-L1 cells, 150 μM peptide, 48 hours, vs untreated control (FIG. 1)) is recorded as “significantly lower than the control group”. Moreover, in the test with 3T3-L1 mature adipocytes, the “Decrease in degree of lipid accumulation” value is recorded as “approximately 20%”; the “Number and size” value was “smaller than those in the non-treated control”; the “Reduction of lipid accumulation” value was “effective in reducing lipid accumulation”. In the test on DIO mice (IP injection), the “Prevention of body weight gain / body weight change” value is listed as “positive effects on prevention of body weight gain” and the “Prevention of body weight gain” value is recorded as “positive effects on prevention of body weight gain; also recorded: effective”. In addition, the “Prevention of body weight gain / body weight change” value in the test with DIO mice (SC injection) is “effective”.
As to RGG, the “Fructose concentration in adipocytes vs control group” value with 3T3-L1 cells (setting [3]) is reported as “significantly lower than the control group”.
Consider GGK, for which, in the test on 3T3-L1 cells (setting [3]), the “Fructose concentration in adipocytes vs control group” value is “significantly lower than the control group”.
